Patent publication US20230241226A1, “COMPOUNDS FOR TARGETED DEGRADATION OF CARRIER PROTEINS AND USES THEREOF” (CeMM - Forschungszentrum für Molekulare Medizin GmbH, priority 2019, published 2023)

Columns and labels:
Format in all cases: cell-based
[1] = target: T1, dTAG-HA SLC2A3 (Homo sapiens, UniProt P11169+Q96SW2); experiment: Targeted degradation of dTAG-tagged SLC2A3 (western blot)
T1 construct: expressed in transfected cells
Protocol: (C)HAP1 cells expressing dTAG-HA SLC1A5, 2A3, 30A9, 35B2, MTCH2, and 33A1 were treated for 24 hours with 0.5 µM of dTAG7 or dTAG13, as indicated. HAP1 cells expressing dTAG-HA SLC2A1 and 16A1 were treated for 24 hrs with 0.5 µM of dTAG7. HAP1 cell lines expressing dTAG-HA SLC39A7, dTAG-HA SLC4A4, and SLC7A3-dTAG-HA were treated for 48 hrs with 0.5 µM of dTAG13.
(§1) SLC1A5, SLC2A1, SLC2A3, SLC16A1, SLC38A1, SLC38A2 were obtained as gateway-compatible pENTR/pDONR vectors from the Harvard PlasmID Repository. SLC39A7 was obtained from Dharmacon, GE Healthcare. The following vectors were synthesized by Genescript: SLC4A4, SLC7A3, SLC38A9, SLC25A1, SLC9A1, SLC9A2, SLC9A3, SLC9A4, SLC9A5, SLC9A6, SLC9A7, SLC9A8, and SLC9B2. SLC30A9, SLC33A1, SLC35B2, SLC25A26, and MTCH2 were a gift from the RESOLUTE consortium. cDNAs were transferred into gateway-compatible lentiviral expression vectors: pLX305 dTAG vectors (Addgene #91797/8) or pRRL Strep-HA (described previously43, EF1a promotor driven expression) using LR recombination (ThermoFisher Scientific). For the generation of lentiviral stable overexpression cells, HEK293T cells were transfected with psPAX2 (Addgene #12260) and pMD2.G (Addgene #12259) and expression vectors using polyethylenimine (PEI). 12 hours post transfection medium was replaced with fresh medium. The medium, containing the virus, was harvested 48 hours later, filtered (0.45 µm), supplemented with 5 µg/ml Polybrene (Hexadimethrine bromide, Sigma) and added to target cells. […]
(§2) For immunoblotting, whole cell extracts were prepared using RIPA lysis buffer (25 mM Tris/HCl pH 7.6, 150 mM NaCl, 1% NP-40, 1% sodium deoxycholate, 0.1% SDS, EDTA-free protease inhibitor (Roche) and phosphatase inhibitors 2+3 (Sigma- Aldrich)). […] Protein extracts were quantified and normalized using the BCA assay (Thermo Scientific). […]
SLCs were ectopically expressed as fusions to a mutated FKBP domain, also known as the dTAG system. […]

[2] = target: T2, dTAG-HA SLC38A2 (Homo sapiens, UniProt Q96QD8+Q96SW2); experiment: Targeted degradation of dTAG-tagged SLC38A2 (western blot); conditions: HAP1, 0.5 µM; for time to degradation of the glycosylated form (upper band) of dTAG-HA SLC38A2: time course
T2 construct: expressed in transfected cells
Protocol: (§3) (A) HAP1 cells expressing dTAG-HA SLC38A9, 38A2, or 38A1 were treated with 0.5 µM dTAG13 for 16, 24 or 48 hours.
as §1, §2
(§4) SLCs were ectopically expressed as fusions to a mutated FKBP domain, also known as the dTAG system. […] Each of the tested SLCs was stably expressed in HAP1 cells, and subcellular localization was assessed by immunofluorescence microscopy (FIG. 1B). […]

[3] = target: T3, dTAG-HA SLC38A9 (Homo sapiens, UniProt Q8NBW4+Q96SW2); experiment: Targeted degradation of dTAG-tagged SLC38A9 (western blot)
T3 construct: expressed in transfected cells
Protocol: as §3
SLC1A5, SLC2A1, SLC2A3, SLC16A1, SLC38A1, SLC38A2 were obtained as gateway-compatible pENTR/pDONR vectors from the Harvard PlasmID Repository. SLC39A7 was obtained from Dharmacon, GE Healthcare. The following vectors were synthesized by Genescript: SLC4A4, SLC7A3, SLC38A9, SLC25A1, SLC9A1, SLC9A2, SLC9A3, SLC9A4, SLC9A5, SLC9A6, SLC9A7, SLC9A8, and SLC9B2. SLC30A9, SLC33A1, SLC35B2, SLC25A26, and MTCH2 were a gift from the RESOLUTE consortium. cDNAs were transferred into gateway-compatible lentiviral expression vectors: pLX305 dTAG vectors (Addgene #91797/8) or pRRL Strep-HA (described previously43, EF1a promotor driven expression) using LR recombination (ThermoFisher Scientific). […]
as §2, §4

T1 sequence (P11169 with tags, fused parts or gaps): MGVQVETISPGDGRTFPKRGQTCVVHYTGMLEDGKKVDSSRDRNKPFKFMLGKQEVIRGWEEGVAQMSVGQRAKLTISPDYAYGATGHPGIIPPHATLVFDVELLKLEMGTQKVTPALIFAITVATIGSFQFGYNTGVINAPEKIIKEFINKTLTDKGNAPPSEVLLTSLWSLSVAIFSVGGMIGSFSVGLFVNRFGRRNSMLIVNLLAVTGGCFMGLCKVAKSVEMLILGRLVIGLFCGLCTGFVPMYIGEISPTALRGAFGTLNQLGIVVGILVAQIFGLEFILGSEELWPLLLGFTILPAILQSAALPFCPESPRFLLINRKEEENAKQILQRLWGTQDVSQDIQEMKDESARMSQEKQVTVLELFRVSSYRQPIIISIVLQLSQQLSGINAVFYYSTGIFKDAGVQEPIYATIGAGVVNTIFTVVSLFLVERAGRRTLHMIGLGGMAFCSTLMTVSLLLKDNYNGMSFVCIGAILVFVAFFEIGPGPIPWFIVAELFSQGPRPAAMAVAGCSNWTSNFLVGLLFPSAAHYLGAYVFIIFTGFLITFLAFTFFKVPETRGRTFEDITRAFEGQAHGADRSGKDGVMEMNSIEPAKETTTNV
T1 sequence (Q96SW2 whole entry): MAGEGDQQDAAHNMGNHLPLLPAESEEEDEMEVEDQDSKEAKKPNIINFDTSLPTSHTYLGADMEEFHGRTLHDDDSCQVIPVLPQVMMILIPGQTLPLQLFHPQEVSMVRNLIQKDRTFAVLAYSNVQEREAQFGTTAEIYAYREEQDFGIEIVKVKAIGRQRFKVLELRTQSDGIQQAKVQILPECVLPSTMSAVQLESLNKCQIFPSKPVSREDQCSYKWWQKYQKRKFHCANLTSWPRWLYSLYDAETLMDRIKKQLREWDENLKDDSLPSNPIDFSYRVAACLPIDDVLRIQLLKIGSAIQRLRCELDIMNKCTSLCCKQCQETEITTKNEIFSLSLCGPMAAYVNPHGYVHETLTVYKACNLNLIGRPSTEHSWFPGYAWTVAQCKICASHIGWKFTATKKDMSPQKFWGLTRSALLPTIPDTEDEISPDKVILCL
T1 sequence (Q16531 whole entry partner): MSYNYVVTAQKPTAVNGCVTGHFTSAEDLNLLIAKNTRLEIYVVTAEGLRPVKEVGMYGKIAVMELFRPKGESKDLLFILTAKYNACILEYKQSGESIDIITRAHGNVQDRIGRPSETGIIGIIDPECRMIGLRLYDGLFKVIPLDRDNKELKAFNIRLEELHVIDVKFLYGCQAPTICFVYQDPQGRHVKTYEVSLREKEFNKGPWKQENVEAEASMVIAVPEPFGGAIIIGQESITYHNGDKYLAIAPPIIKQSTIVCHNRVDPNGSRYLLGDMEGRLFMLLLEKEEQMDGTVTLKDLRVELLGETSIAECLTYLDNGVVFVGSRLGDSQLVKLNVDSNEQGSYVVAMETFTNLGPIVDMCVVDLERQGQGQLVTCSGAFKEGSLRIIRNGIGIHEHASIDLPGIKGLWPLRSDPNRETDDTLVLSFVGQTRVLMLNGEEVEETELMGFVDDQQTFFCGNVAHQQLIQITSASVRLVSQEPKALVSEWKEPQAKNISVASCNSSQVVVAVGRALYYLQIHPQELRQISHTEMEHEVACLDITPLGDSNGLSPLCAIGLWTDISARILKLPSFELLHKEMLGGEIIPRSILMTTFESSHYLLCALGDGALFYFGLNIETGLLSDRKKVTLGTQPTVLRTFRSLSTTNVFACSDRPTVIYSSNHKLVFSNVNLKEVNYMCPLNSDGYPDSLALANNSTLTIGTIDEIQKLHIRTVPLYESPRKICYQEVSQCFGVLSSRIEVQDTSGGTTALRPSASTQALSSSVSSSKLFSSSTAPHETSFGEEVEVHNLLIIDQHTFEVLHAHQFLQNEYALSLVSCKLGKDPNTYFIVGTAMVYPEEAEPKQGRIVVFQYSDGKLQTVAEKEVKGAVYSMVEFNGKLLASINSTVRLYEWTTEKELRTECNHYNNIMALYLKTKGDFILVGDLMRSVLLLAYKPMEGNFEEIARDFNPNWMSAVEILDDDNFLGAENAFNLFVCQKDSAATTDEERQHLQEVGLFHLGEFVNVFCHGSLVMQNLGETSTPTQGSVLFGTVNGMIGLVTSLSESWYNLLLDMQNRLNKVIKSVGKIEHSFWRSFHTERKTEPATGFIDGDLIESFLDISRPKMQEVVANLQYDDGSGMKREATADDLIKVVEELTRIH
T2 sequence (Q96QD8 with tags, fused parts or gaps): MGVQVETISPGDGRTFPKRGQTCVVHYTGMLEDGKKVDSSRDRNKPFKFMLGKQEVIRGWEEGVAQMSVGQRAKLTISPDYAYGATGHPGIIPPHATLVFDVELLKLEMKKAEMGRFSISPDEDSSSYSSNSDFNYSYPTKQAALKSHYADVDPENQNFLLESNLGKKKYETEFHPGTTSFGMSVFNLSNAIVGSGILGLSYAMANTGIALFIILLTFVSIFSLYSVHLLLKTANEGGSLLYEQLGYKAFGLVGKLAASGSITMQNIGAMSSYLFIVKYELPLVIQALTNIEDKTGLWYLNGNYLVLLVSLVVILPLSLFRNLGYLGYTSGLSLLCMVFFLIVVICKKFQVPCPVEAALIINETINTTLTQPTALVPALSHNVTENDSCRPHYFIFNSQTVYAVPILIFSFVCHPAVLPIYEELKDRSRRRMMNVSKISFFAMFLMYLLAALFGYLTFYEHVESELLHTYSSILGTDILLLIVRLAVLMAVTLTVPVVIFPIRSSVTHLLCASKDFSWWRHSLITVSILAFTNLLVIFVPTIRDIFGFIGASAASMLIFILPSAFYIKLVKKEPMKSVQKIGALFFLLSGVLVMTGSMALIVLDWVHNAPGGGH
T2 sequence (Q96SW2 whole entry): as the sequence (Q96SW2 whole entry) above
T2 sequence (Q16531 whole entry partner): as the sequence (Q16531 whole entry partner) above
T3 sequence (Q8NBW4 with tags, fused parts or gaps): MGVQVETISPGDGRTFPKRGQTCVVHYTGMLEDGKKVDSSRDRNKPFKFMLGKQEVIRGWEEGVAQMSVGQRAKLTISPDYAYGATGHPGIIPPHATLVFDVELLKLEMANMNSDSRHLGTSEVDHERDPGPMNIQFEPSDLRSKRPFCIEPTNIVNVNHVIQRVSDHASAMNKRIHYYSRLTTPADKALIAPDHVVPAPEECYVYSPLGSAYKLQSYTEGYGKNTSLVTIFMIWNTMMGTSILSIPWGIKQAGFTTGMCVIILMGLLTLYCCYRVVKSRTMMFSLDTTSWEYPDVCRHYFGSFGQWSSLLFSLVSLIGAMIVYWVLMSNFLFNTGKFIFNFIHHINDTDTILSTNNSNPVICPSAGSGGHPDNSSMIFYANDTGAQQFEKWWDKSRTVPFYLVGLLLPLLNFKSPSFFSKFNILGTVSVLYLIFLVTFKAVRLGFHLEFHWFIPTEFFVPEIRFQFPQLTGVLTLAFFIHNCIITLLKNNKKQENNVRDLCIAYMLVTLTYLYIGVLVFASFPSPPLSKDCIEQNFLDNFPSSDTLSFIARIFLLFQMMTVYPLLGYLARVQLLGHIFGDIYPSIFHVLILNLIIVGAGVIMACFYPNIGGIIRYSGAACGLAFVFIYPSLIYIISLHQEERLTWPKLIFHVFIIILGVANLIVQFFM
T3 sequence (Q96SW2 whole entry): as the sequence (Q96SW2 whole entry) above
T3 sequence (Q16531 whole entry partner): as the sequence (Q16531 whole entry partner) above

Compound	initiation of degradation (time course) ([1]; HAP1, dTAG-HA SLC2A3, 0.5 µM)	time to degradation of the glycosylated form (upper band) of dTAG-HA SLC38A2 [2]	reversibility of degradation of the target SLC ([3]; HAP1, 0.5 µM, 24, 48 or 72 hours)	degradation of dTAG-HA SLC2A3 ([1]; HAP1, LS180 and HCT15 cells, 0.5 µM, 72 hours)	degradation of SLC2A3 tagged on the N- or C-terminus with dTAG-HA ([1]; two HAP1 cell lines, 24 hours)	degradation of the target SLC ([2]; dTAG-HA SLC38A2, 16, 24 or 48 hours)	degradation of the target SLC ([3]; HAP1, 0.5 µM, 16, 24 or 48 hours)
CC[C@H](C(=O)N1CCCC[C@H]1C(=O)O[C@H](CCc1ccc(OC)c(OC)c1)c1ccccc1OCC(=O)NCCCOCCOCCOCCCNC(=O)COc1cccc2c1C(=O)N(C1CCC(=O)NC1=O)C2=O)c1cc(OC)c(OC)c(OC)c1 (some centres unmarked) [dTAG7]	≤ 6 h	within five hours	reversible degradation	–	–	–	–
CC[C@H](C(=O)N1CCCC[C@H]1C(=O)O[C@H](CCc1ccc(OC)c(OC)c1)c1ccccc1OCC(=O)NCCCCCCOc1cccc2c1C(=O)N(C1CCC(=O)NC1=O)C2=O)c1cc(OC)c(OC)c(OC)c1 (some centres unmarked) [dTAG13]	–	within five hours	–	completely degraded	degraded in both	Near-complete degradation	Near-complete degradation
